Data on one molecule can be found in US10316050B2, “PT (IV) complexes containing 4,4′-disubstituted-2,2′-bipyridyl and their use in cancer therapy” (THE BOARD OF REGENTS OF THE NEVADA SYSTEM OF HIGHER …, priority 2014, dated 2019).

Series [1] concerns MCF-7 breast cancer cells. Description: MTS cell viability assay, MCF-7. Type of series: cell-based, human. To be noted: read-out: EC50 (effective concentration that resulted in 50% cell viability). An outline of the steps:
(§1)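 MEM + 10% FBS, 25 mM HEPES pH 7.4, 37 °C/5% CO2; 2-3.5×10³ cells/well, 2 d to ~50% confluence. Tx 1 h → wash ×3 PBS → 2 d fresh medium, or 48 h continuous. MTS 4 h, A490; % of control.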

The test system of series [2] is H520 lung cancer cells. Description: MTS cell viability assay, H520. Type of series: cell-based, human. The conditions noted are these: read-out: EC50 (effective concentration that resulted in 50% cell viability). An outline of the steps: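 Two exposure schemes were used: a 1 h treatment followed by washing and 2 days' regrowth, and a 48 h continuous treatment. Viability was then measured colorimetrically with MTS reagent (4 h, 490 nm) relative to solvent controls.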

The test system of series [3] is ZR-75-1 breast cancer cells. Description: MTS cell viability assay, ZR-75-1. Type of series: cell-based, human. To be noted: read-out: EC50 (effective concentration that resulted in 50% cell viability). An outline of the steps:
as §1

The test system of series [4] is A549 lung cancer cells. Description: MTS cell viability assay, A549. Type of series: cell-based, human. To be noted: read-out: EC50 (effective concentration that resulted in 50% cell viability). An outline of the steps:
as §1

Series [5] concerns T-47D breast cancer cells. Description: MTS cell viability assay, T-47D. Type of series: cell-based, human. An outline of the steps:
as §1

Series [6] can be described thus: Solubility in DMSO and common organic solvents. Type of series: physicochemical. The protocol: Coordination of the axial ligands to the Pt center improved the solubility of the complexes in common organic solvents. DMSO solutions of the Pt(IV) complexes with concentrations of 10 mM or higher were obtainable, whereas the Pt(II) can only be made at the highest concentration of 5 mM.

Series [7] deals with DU145 prostate cancer cells. Type of series: cell-based, human. The conditions noted are these: read-out: EC50 (effective concentration that resulted in 50% cell viability). The procedure, abridged:
(§2)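 SK-BR-3 cells grown in MEM, DU145 and PC-3 cells in RPMI-1640, each with 10% FBS and 25 mM HEPES pH 7.4, plated 2 days to ~50% confluence. Exposure to increasing Pt complex or cisplatin/carboplatin concentrations for 1 h (washed, then 2 days recovery) or 48 h continuous. MTS absorbance at 490 nm after 4 h; viability as percent of control.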

Series [8] in a line: Maximum tolerated dose study in a mouse model. To be noted: intraperitoneal administration, 12.5 mg/kg/day for three days. Type of series: in vivo. The protocol: As described herein, the platinum complexes provided herein can be used to reduce the viability of cancer cells. […] One of these compounds, Pt(II)-4C, was tested in vivo in a mouse model to determine the maximum tolerated dose. […] Here, a series of Pt(IV) derivatives having improved solubility in DMSO and, in some instances, increased activity compared to their Pt(II) counterparts is described.

Series [9] has as its system PC-3 prostate cancer cells. Description: MTS cell viability assay, PC-3. Type of series: cell-based, human. To be noted: read-out: EC50 (effective concentration that resulted in 50% cell viability). An outline of the steps: as §2
Series [10] in a line: Solubility in water and culture medium. To be noted: water. Type of series: physicochemical. The protocol: It should be noted that while the solubility of the Pt(IV) complexes in organic solvents were increased compared to their Pt(II) precursors, they were still poorly soluble in water. Thus, Pt(IV)-1C to Pt(IV)-3C were limited to a highest concentration of 100 μM. […] Testing of Pt(IV)4C therefore was limited to 25 μM.

The test system of series [11] is SK-BR-3 breast cancer cells. Description: MTS cell viability assay, SK-BR-3. Type of series: cell-based, human. To be noted: read-out: EC50 (effective concentration that resulted in 50% cell viability). An outline of the steps: as §2
Series [12] has as its system MDA-MB-231 breast cancer cells. Description: MTS cell viability assay, MDA-MB-231. To be noted: read-out: EC50 (effective concentration that resulted in 50% cell viability). Type of series: cell-based, human. The procedure, abridged:
as §1

Series [13] relates to HCC38 breast cancer cells. Description: MTS cell viability assay, HCC38. The conditions noted are these: read-out: EC50 (effective concentration that resulted in 50% cell viability). Type of series: cell-based, human. The procedure, abridged:
as §1

Like-named read-outs stand apart in the source and are kept apart here.

In the case of `CCCCOc1ccnc(-c2cc(OCCCC)ccn2)c1.[Cl][Pt][Cl]` [Pt(II)-4C], the EC50 in series [1] (MCF-7, 1 h treatment, Table 2) was determined as 22 ± 2 µM; in series [1] (MCF-7, 48 h treatment, Table 4), 13 ± 1 µM; in [2] (H520, 1 h treatment, Table 2), 20 ± 1 µM; in [2] (H520, 48 h treatment, Table 4), 14 ± 6 µM; in series [3] (ZR-75-1, 1 h treatment, Table 2), 21 ± 2 µM; in [3] (ZR-75-1, 48 h treatment, Table 4), 6 ± 0.9 µM. For the same molecule, the EC50 in series [4] (A549, 1 h treatment, Table 2) worked out at 17 ± 1 µM; in [4] (A549, 48 h treatment, Table 4) it was 15.4 ± 0.5 µM; in series [5] (1 h treatment, Table 2, read-out: EC50 (effective concentration that resulted in 50% cell viability)) it was 12 ± 7 µM; in series [5] (48 h treatment, Table 4, read-out: EC50 (effective concentration that resulted in 50% cell viability)), 2.3 ± 0.4 µM; in [7] (DU145, 1 h treatment, Table 2), 12 ± 8 µM; in series [7] (DU145, 48 h treatment, Table 4), 5 ± 2 µM. In addition, the EC50 was found to be 11 ± 2 µM in series [9] (PC-3, 1 h treatment, Table 2); 7.4 ± 0.5 µM in series [9] (PC-3, 48 h treatment, Table 4); 5 ± 4 µM in series [11] (SK-BR-3, 1 h treatment, Table 2); 2.1 ± 0.2 µM in [11] (SK-BR-3, 48 h treatment, Table 4); 4 ± 3 µM in series [12] (MDA-MB-231, 1 h treatment, Table 2); 2.4 ± 0.6 µM in [12] (MDA-MB-231, 48 h treatment, Table 4). The EC50 was 12 ± 6 µM in [13] (HCC38, 1 h treatment, Table 2) and 7.3 ± 3 µM in series [13] (HCC38, 48 h treatment, Table 4). For the same molecule, in series [6], the “solubility in DMSO and other common organic solvents (in words)” value was “only moderate solubility in common organic solvents”. Moreover, the “survival of the animals” value in series [8] was “survived for seven days”. Further, the “solubility in water (in words)” value in [10] was “poor solubility in water”.
